Where two headings read alike, the source gives them in different places.
Target: T1, ASIC1a (Homo sapiens, UniProt P78348)
T1 sequence (P78348 1-528): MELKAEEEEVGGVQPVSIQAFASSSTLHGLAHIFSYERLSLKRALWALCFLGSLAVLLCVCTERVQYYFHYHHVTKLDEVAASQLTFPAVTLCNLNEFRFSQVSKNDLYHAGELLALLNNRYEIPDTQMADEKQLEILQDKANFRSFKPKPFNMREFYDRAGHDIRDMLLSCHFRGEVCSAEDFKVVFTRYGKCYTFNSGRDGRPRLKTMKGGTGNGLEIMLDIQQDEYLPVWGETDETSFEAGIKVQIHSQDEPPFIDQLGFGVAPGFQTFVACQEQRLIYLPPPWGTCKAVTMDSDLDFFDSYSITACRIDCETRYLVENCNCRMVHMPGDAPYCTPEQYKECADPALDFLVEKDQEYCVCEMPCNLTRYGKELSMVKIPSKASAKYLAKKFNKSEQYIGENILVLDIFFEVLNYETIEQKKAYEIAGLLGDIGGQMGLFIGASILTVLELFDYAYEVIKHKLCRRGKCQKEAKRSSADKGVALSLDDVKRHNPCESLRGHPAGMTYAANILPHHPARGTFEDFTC
Assay: Two-electrode voltage clamp of acid-induced currents in Xenopus laevis oocytes
Format: cell-based
Parameters: expressed in transfected cells; host or cells: Xenopus laevis oocytes, nuclear microinjection of an expression vector such as pCDNA3
Details: for inhibition at 50 µM: Xenopus oocytes, read-out: % inh. at 50 μM (Xo)
Procedure: Screening and Bioanalysis of ASIC Antagonists in Xenopus laevis oocytes
This example describes the in vitro assessment of the activity of the compounds of the present invention.
Two-electrode voltage clamp electrophysiological assays in Xenopus laevis oocytes expressing gated ion channels are performed as follows:
Oocytes are surgically removed from adult Xenopus laevis and treated for 2 h at room temperature with 1 mg/ml type I collagenase (Sigma) in Barth's solution under mild agitation. Selected oocytes at stage IV-V are defolliculated manually before nuclear microinjection of 2.5-5 ng of a suitable expression vector, such as pCDNA3, comprising the nucleotide sequence encoding a gated ion channel subunit protein. In such an experiment, the oocytes express homomultimeric proton-gated ion channels on their surface. In an alternate experiment, one, two, three or more vectors comprising the coding sequences for distinct gated ion channel subunits are co-injected in the oocyte nuclei. In the latter case, oocytes express heteromultimeric proton-gated ion channels. For example, ASIC2a and/or ASIC3 subunits in pcDNA3 vector are co-injected at a 1:1 cDNA ratio. After 2-4 days of expression at 19° C. in Barth's solution containing […] gentamicin and 1.8 mM CaCl2, gated ion channels are activated by applying an acidic solution (pH<7) and currents are recorded in a two electrode voltage-clamp configuration, using an OC-725B amplifier (Warner Instruments). Currents are acquired and digitized at 500 Hz on an Apple Imac G3 computer with an A/D NB-MIO-16XL interface (National Instruments) and recorded traces are post-filtered at 100 Hz in Axograph (Axon Instruments) (Neher, E. and Sakmann, B. (1976) Nature 260:799-802). Once impaled with the microelectrodes, oocytes are continuously superfused at 10-12 ml/min with a modified Ringer's solution containing 97 mM NaCl, 2 mM KCl, 1.8 mM CaCl2, and 10 mM HEPES brought to pH 7.4 with NaOH (Control Ringer). Test Ringer solution is prepared by replacing HEPES with MES and adjusting the pH to the desired acidic value. Compounds of the present invention are prepared in both the Control and Test Ringer solutions and applied to oocytes at room temperature through a computer-controlled switching valve system. Osmolarity of all solutions is adjusted to 235 mOsm with choline chloride. Similarly, recordings can also be acquired in an automated multichannel oocytes system as the OpusExpress™ (Molecular Devices, Sunnyvale, USA).
FIGS. 1A and 2A illustrate the inhibitory effects of Compounds 12 and 44 on acid-induced activation of recombinant homomeric hASIC1a channels. FIGS. 1A and 2A show the dose-dependent inhibition of the acid-induced hASIC1a currents recorded from Xenopus laevis oocytes using the two-electrode voltage clamp method (as described in this example) in the absence or presence of increasing concentration of the compounds.

Compound	IC50	inhibition at 50 µM	IC50 (Xenopus laevis oocytes, three point dose-response, read-out: IC50, half maximal inhibition of the acid-evoked response in hASIC1a)
CCN1CCc2c(-c3cc(Cl)ccc3OC)cc(C#N)c(N)c2C1 [Compound 44]	8.5 µM	> 50%	
CCN1CCc2c(-c3ccccc3)cc(C#N)c(N)c2C1 [Compound 12, 8-Amino-2-ethyl-5-phenyl-1,2,3,4-tetrahydro-isoquinoline-7-carbonitrile]		> 50%	5.9 µM

— US20080004282A1, “Compositions and methods for modulating gated ion channels” (PainCeptor Pharma Corporation, priority 2006, published 2008)
